According to ChEMBL document CHEMBL1136350, “Design and synthesis of orally active inhibitors of TNF synthesis as anti-rheumatoid arthritis drugs” (Bioorg Med Chem Lett, 2003):
Blank lines part the entries; values can stand above or below the molecule they belong to.

Tests used:
MONO-MAC-6 = assay: Inhibitory activity against monomac6 (MM6) human monocytic cell line; format: functional, cell-based
[1] = Area under curve was determined in rat after oral administration at a concentration 30 mg/kg; format: ADME, organism-based; design: dose 30 mg/kg, route oral; conditions: in vivo
Rattus norvegicus = assay: Area under curve was determined in rat after oral administration at a concentration 30 mg/kg; NA= Not active; format: ADME, organism-based; design: dose 30 mg/kg, route oral; conditions: in vivo
[2] = Cmax in rat plasma after 30mg/kg oral dose; format: ADME, organism-based; design: dose 30 mg/kg, route oral
[3] = Cmax in dog plasma after 30mg/kg oral dose; format: ADME, organism-based, Canis lupus familiaris; design: dose 30 mg/kg, route oral
Mus musculus [4] = assay: Reduction of murine collagen -induced arthritis(MCIA) in mice after peroral administration at a concentration 120 mg/kg; format: functional; conditions: route oral
Mus musculus [5] = assay: Inhibition of murine collagen -induced arthritis(MCIA) in mice after peroral administration at a concentration 15 mg/kg; format: functional; conditions: route oral
[6] = Plasma concentration in rats after 7 hr at 30mg/kg oral dose; format: ADME, organism-based; conditions: rat, read-out: Conc_plasma
Mus musculus [7] = assay: Number of positive paws that was inflamed by murine collagen -induced arthritis(MCIA) in mice after peroral administration 13 day at a concentration 2 mg/kg; format: functional; conditions: route oral
Mus musculus [8] = assay: Number of positive paws that was inflamed by murine collagen -induced arthritis(MCIA) in mice after peroral administration 13 day at a concentration 15 mg/kg; format: functional; conditions: route oral
Mus musculus [9] = assay: Reduction of murine collagen -induced arthritis(MCIA) in mice after peroral administration at a concentration 45 mg/kg; format: functional; conditions: route oral
Mus musculus [10] = assay: Number of paws at risk inflamed by murine collagen -induced arthritis(MCIA) in mice after peroral administration at a concentration 5 mg/kg; format: functional; conditions: route oral
Mus musculus [11] = assay: Inhibition of murine collagen -induced arthritis(MCIA) in mice after peroral administration at a concentration 45 mg/kg; format: functional; conditions: route oral
Mus musculus [12] = assay: Number of paws at risk inflamed by murine collagen -induced arthritis(MCIA) in mice after peroral administration at a concentration 120 mg/kg; format: functional; conditions: route oral
Mus musculus [13] = assay: Number of paws at risk inflamed by murine collagen -induced arthritis(MCIA) in mice after peroral administration at a concentration 2 mg/kg; format: functional; conditions: route oral
Mus musculus [14] = assay: Reduction of murine collagen -induced arthritis(MCIA) in mice after peroral administration at a concentration 15 mg/kg; format: functional; conditions: route oral
Mus musculus [15] = assay: Reduction of murine collagen -induced arthritis(MCIA) in mice after peroral administration at a concentration 5 mg/kg; format: functional; conditions: route oral
Mus musculus [16] = assay: Inhibition of murine collagen -induced arthritis(MCIA) in mice after peroral administration at a concentration 120 mg/kg; format: functional; conditions: route oral
Mus musculus [17] = assay: Number of paws at risk inflamed by murine collagen -induced arthritis(MCIA) in mice after peroral administration at a concentration 15 mg/kg; format: functional; conditions: route oral
Mus musculus [18] = assay: Inhibition of murine collagen -induced arthritis(MCIA) in mice after peroral administration at a concentration 5 mg/kg; format: functional; conditions: route oral
[19] = Plasma concentration in dogs after 2 hr at 30mg/kg oral dose; format: ADME, organism-based, Canis lupus familiaris; conditions: dog, read-out: Conc_plasma
Mus musculus [20] = assay: Number of paws at risk inflamed by murine collagen -induced arthritis(MCIA) in mice after peroral administration at a concentration 45 mg/kg; format: functional; conditions: route oral
Mus musculus [21] = assay: Number of positive paws that was inflamed by murine collagen -induced arthritis(MCIA) in mice after peroral administration 13 day at a concentration 45 mg/kg; format: functional; conditions: route oral
Mus musculus [22] = assay: Number of positive paws that was inflamed by murine collagen -induced arthritis(MCIA) in mice after peroral administration 13 day at a concentration 5 mg/kg; format: functional; conditions: route oral
Mus musculus [23] = assay: Number of positive paws that was inflamed by murine collagen -induced arthritis(MCIA) in mice after peroral administration 13 day at a concentration 120 mg/kg; format: functional; conditions: route oral
Mus musculus [24] = assay: Reduction of murine collagen -induced arthritis(MCIA) in mice after peroral administration at a concentration 2 mg/kg; format: functional; conditions: route oral
Mus musculus [25] = assay: Inhibition of murine collagen -induced arthritis(MCIA) in mice after peroral administration at a concentration 2 mg/kg; format: functional; conditions: route oral

IC50 (MONO-MAC-6; Homo sapiens, MONO-MAC-6): 15000 nM
SMILES: COc1ccc(C2=CCN(S(=O)(=O)N3CCCC[C@@H]3C(=O)NO)CC2)cc1

IC50 (MONO-MAC-6; Homo sapiens, MONO-MAC-6): 2600 nM
SMILES: CCCc1ccc(C2=CCN(S(=O)(=O)N3CCCC[C@@H]3C(=O)NO)CC2)cc1

AUC [1]: 3260 ng·h/mL
IC50 (MONO-MAC-6; Homo sapiens, MONO-MAC-6): 300 nM
SMILES: O=C(NO)[C@H]1CN(CC(F)(F)F)CCN1S(=O)(=O)N1CC=C(c2ccc(F)cc2)CC1

IC50 (MONO-MAC-6; Homo sapiens, MONO-MAC-6): 1200 nM
SMILES: O=C(NO)[C@H]1CCCCN1S(=O)(=O)N1CC=C(c2ccc(F)c(F)c2)CC1

IC50 (MONO-MAC-6; Homo sapiens, MONO-MAC-6): 240 nM
SMILES: O=C(NO)[C@H]1CCCCN1S(=O)(=O)N1CC=C(c2ccccc2)CC1

IC50 (MONO-MAC-6; Homo sapiens, MONO-MAC-6): 1200 nM
SMILES: O=C(NO)[C@H]1CCCCN1S(=O)(=O)N1CC=C(c2ccc(Br)cc2)CC1

IC50 (MONO-MAC-6; Homo sapiens, MONO-MAC-6): 3560 nM
AUC (Rattus norvegicus): Not Active
SMILES: O=C(NO)[C@H]1CNCCN1S(=O)(=O)N1CC=C(c2ccc(F)cc2)CC1

IC50 (MONO-MAC-6; Homo sapiens, MONO-MAC-6): 320 nM
SMILES: CCc1cccc(C2=CCN(S(=O)(=O)N3CCCC[C@@H]3C(=O)NO)CC2)c1

IC50 (MONO-MAC-6; Homo sapiens, MONO-MAC-6): 1240 nM
SMILES: C[C@@H](NS(=O)(=O)N1CC=C(c2ccc(Cl)cc2)CC1)C(=O)NO

IC50 (MONO-MAC-6; Homo sapiens, MONO-MAC-6): 7600 nM
SMILES: O=C(NO)[C@H]1CCCCN1S(=O)(=O)N1CC=C(c2cccc(-c3ccccc3)c2)CC1

IC50 (MONO-MAC-6; Homo sapiens, MONO-MAC-6): 300 nM
Cmax [2]: 3060 ng/mL
Cmax [3]: 117 ng/mL
SMILES: O=C(NO)[C@H]1CCCCN1S(=O)(=O)N1CC=C(c2ccc(F)cc2)CC1

IC50 (MONO-MAC-6; Homo sapiens, MONO-MAC-6): 5800 nM
SMILES: C[C@@H](NS(=O)(=O)N1CCC(c2ccc(Cl)cc2)CC1)C(=O)NO

AUC [1]: 6180 ng·h/mL
concentration at 7 h [6]: 233 ng/mL
IC50 (MONO-MAC-6; Homo sapiens, MONO-MAC-6): 200 nM
Cmax [2]: 1050 ng/mL
concentration at 2 h [19]: 110 ng/mL
Cmax [3]: 182 ng/mL
SMILES: CN(C)C(=O)N1CCN(S(=O)(=O)N2CC=C(c3ccc(F)cc3)CC2)[C@@H](C(=O)NO)C1
inhibition in vivo at 120 mg/kg (Mus musculus [4]): 96%
Max score (Mus musculus [5]): 4.5
Positive paws (Mus musculus [7]): 27%
Positive paws (Mus musculus [8]): 41%
inhibition in vivo at 45 mg/kg (Mus musculus [9]): 56%
Severity (Mus musculus [10]): 2.4
Max score (Mus musculus [11]): 3.8
Severity (Mus musculus [12]): 1
Severity (Mus musculus [13]): 2.7
inhibition in vivo at 15 mg/kg (Mus musculus [14]): 49%
inhibition in vivo at 5 mg/kg (Mus musculus [15]): 69%
Max score (Mus musculus [16]): 0.3
Severity (Mus musculus [17]): 2.8
Max score (Mus musculus [18]): 2.7
Severity (Mus musculus [20]): 2.9
Positive paws (Mus musculus [21]): 33%
Positive paws (Mus musculus [22]): 30%
Positive paws (Mus musculus [23]): 4%
inhibition in vivo at 2 mg/kg (Mus musculus [24]): 67%
Max score (Mus musculus [25]): 2.9

AUC [1]: 7940 ng·h/mL
IC50 (MONO-MAC-6; Homo sapiens, MONO-MAC-6): 350 nM
SMILES: O=C(NO)[C@H]1CN(C(=O)N2CCOCC2)CCN1S(=O)(=O)N1CC=C(c2ccc(F)cc2)CC1

IC50 (MONO-MAC-6; Homo sapiens, MONO-MAC-6): 3300 nM
SMILES: O=C(NO)[C@H]1CCCCN1S(=O)(=O)N1CC=C(c2ccc(Oc3ccccc3)cc2)CC1

AUC [1]: 3270 ng·h/mL
IC50 (MONO-MAC-6; Homo sapiens, MONO-MAC-6): 250 nM
SMILES: CN(C)S(=O)(=O)N1CCN(S(=O)(=O)N2CC=C(c3ccc(F)cc3)CC2)[C@@H](C(=O)NO)C1

IC50 (MONO-MAC-6; Homo sapiens, MONO-MAC-6): 19000 nM
SMILES: O=C(NO)[C@H]1CCCCN1S(=O)(=O)N1CC=C(c2ccc(-c3ccccc3)cc2)CC1

AUC [1]: 1540 ng·h/mL
IC50 (MONO-MAC-6; Homo sapiens, MONO-MAC-6): 510 nM
SMILES: CN(C)P(=O)(N(C)C)N1CCN(S(=O)(=O)N2CC=C(c3ccc(F)cc3)CC2)[C@@H](C(=O)NO)C1

AUC [1]: 1790 ng·h/mL
IC50 (MONO-MAC-6; Homo sapiens, MONO-MAC-6): 120 nM
SMILES: CNC(=O)N1CCN(S(=O)(=O)N2CC=C(c3ccc(F)cc3)CC2)[C@@H](C(=O)NO)C1

IC50 (MONO-MAC-6; Homo sapiens, MONO-MAC-6): 260 nM
SMILES: COc1cccc(C2=CCN(S(=O)(=O)N3CCCC[C@@H]3C(=O)NO)CC2)c1

IC50 (MONO-MAC-6; Homo sapiens, MONO-MAC-6): 430 nM
SMILES: O=C(NO)[C@H]1CCCCN1S(=O)(=O)N1CC=C(c2ccc(Cl)cc2)CC1 (stereo in doubt; 3)

IC50 (MONO-MAC-6; mono-mac-6): 480 nM
SMILES: O=C(NO)[C@H]1CCCCN1S(=O)(=O)N1CC=C(c2ccc(Cl)cc2)CC1 (stereo in doubt; 6)
